The values that follow come from US20250115578A1, “AROMATIC FUSED RING NAV1.8 INHIBITOR, AND USE THEREOF” (CHENGDU KANGHONG PHARMACEUTICAL CO., LTD., priority 2022, published 2025).

For data set [1], the target named is Human Nav1.8 ion channel (Homo sapiens (Human), UniProt Q9Y5Y9). Kind of data set: Manual patch clamp, Method 2 (HEK293 cells stably expressing human Nav1.8, resting state). The class given is cell-based. The note with it: Method 2, HEK293-hNav1.8, resting state, 1 μM TTX; read-out: IC50 inhibitory activity against hNav1.8. On the technique in general: The patch-clamp technique gives a direct electrical read-out from membranes.

The target of data set [2] is hNav1.8 (Homo sapiens (Human), UniProt Q9Y5Y9). Briefly: Manual patch clamp, Method 1 (CHO cell line stably expressing hNav1.8). The class given is cell-based. As to conditions: for inhibition at 0.01 µM: 10 nM; for inhibition at 0.01 µM / inhibition at 0.1 µM: Method 1, CHO-hNav1.8, read-out: Inhibition rate of hNav1.8; for inhibition at 0.1 µM: 100 nM; for pIC50: Method 1, CHO-hNav1.8, manual patch clamp, resting state, read-out: IC50 inhibitory activity against hNav1.8.

Data set [3] can be described thus: Stability assay for human liver microsomes in vitro. The class given is in vitro ADME. As to conditions: 1 μM compound, 0.5 mg/mL liver microsomes, read-out: Human liver microsome stability T1/2.

pIC50: −log10 of the molar value.

Sequence of hNav1.8 (Q9Y5Y9 whole entry): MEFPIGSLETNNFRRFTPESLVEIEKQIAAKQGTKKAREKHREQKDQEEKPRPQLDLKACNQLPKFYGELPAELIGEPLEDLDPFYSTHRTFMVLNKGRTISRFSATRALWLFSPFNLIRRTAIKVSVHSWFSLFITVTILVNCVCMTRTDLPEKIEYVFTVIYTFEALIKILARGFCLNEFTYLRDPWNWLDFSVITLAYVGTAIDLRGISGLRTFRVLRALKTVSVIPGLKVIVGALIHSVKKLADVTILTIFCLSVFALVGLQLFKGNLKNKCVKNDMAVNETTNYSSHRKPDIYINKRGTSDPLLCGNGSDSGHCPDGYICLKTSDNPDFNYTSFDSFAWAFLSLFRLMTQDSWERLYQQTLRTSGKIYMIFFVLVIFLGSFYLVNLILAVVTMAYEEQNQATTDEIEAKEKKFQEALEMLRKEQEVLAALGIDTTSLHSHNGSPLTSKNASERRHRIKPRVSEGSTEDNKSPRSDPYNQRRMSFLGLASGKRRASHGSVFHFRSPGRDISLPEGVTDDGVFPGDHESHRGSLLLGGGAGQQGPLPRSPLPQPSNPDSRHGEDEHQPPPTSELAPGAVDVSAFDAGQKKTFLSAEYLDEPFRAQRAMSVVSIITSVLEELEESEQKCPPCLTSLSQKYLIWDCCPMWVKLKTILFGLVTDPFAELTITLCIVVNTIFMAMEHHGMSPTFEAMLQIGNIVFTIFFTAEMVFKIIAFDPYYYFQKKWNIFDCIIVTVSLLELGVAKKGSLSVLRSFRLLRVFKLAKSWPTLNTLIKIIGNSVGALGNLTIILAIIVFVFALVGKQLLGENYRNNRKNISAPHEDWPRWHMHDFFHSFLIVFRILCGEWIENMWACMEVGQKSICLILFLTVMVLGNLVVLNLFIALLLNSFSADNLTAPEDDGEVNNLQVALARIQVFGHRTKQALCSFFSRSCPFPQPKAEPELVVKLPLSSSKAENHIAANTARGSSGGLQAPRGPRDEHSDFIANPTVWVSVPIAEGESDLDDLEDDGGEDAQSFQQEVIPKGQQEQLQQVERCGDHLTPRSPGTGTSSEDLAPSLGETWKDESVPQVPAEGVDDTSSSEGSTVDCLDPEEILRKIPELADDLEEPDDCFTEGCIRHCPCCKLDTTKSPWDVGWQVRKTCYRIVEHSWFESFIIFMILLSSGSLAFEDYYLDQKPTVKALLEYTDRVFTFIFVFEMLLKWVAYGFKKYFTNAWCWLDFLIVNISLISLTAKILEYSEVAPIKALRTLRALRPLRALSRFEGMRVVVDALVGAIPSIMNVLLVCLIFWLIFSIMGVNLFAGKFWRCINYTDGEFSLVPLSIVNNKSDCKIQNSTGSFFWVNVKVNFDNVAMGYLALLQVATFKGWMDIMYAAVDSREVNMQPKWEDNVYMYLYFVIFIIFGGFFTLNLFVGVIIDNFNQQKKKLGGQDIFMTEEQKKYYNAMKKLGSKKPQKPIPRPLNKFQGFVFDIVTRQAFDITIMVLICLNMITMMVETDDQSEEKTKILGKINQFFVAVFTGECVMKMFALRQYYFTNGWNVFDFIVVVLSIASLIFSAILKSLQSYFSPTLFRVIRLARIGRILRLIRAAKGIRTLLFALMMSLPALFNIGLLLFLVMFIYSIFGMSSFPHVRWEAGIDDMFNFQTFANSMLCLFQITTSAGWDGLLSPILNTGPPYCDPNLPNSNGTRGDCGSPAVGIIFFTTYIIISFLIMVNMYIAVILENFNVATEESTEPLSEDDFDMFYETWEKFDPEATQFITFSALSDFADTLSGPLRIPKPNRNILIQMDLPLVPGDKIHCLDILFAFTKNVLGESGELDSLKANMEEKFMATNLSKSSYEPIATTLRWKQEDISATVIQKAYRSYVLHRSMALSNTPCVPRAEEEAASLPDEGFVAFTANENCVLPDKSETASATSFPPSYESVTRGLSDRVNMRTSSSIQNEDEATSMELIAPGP

As a reminder, the pIC50 is the negative decadic logarithm of the IC50, by convention in mol/L. As a reminder, the inhibition is the change of the read-out against control, counted positive when it falls. Take `NC(=O)c1cc(NC(=O)c2nc3ccccc3nc2N2CCCC(F)(F)CC2)ccn1` [Example 05, N-(2-carbamoylpyridin-4-yl)-3-(4,4-difluoroazepan-1-yl)quinoxaline-2-carboxamide]: the pIC50 in data set [1] is 7.67. Also, in data set [2], the inhibition at 0.01 µM was found to be 46.7%, the inhibition at 0.1 µM turned out to be 90.5% and the pIC50 is 8.05. Besides, the half-life at 1 µM in data set [3] was 93.7 min.
The like results for `NS(=O)(=O)c1cccc(NC(=O)c2cc3cc(F)c(F)cc3nc2N2CCCC(F)(F)CC2)c1` [Example 16, 2-(4,4-difluoroazepan-1-yl)-6,7-difluoro-N-(3-sulfamoylphenyl) quinoline-3-carboxamide] were, in that order, 10.15, 99.8%, 100%, 10.08 and 41.3 min.
On to `NS(=O)(=O)c1cc(NC(=O)c2cc3ccccc3nc2N2CCCC(F)(F)CC2)ccn1` [Example 14, 2-(4,4-difluoroazepan-1-yl)-N-(2-sulfamoylpyridine-4-yl) quinoline-3-carboxamide], for which, in data set [1], the pIC50 was 9.14. Besides, in data set [2], the inhibition at 0.01 µM stood at 98%, the inhibition at 0.1 µM was 99.6% and the pIC50 was 9.47. Besides, the half-life at 1 µM in data set [3] is > 145 min.
The corresponding values for `NC(=O)c1cc(NC(=O)c2nc3ccccc3nc2N2CCCC(F)(F)CC2)ccc1F` [Example 02, N-(3-carbamoyl-4-fluorophenyl)-3-(4,4-difluoroazepan-1-yl)quinoxaline-2-carboxamide] are 8.55, 66.1%, 96.1%, 8.28 and 58.8 min.
As to `NC(=O)c1cc(NC(=O)c2cc3cc(F)c(F)cc3nc2N2CCCC(F)(F)CC2)ccn1` [Example 10, N-(2-carbamoylpyridin-4-yl)-2-(4,4-difluoroazepan-1-yl)-6,7-difluoroquinoline-3-carboxamide], the pIC50 in data set [1] is 9.34. For the same compound, in data set [2], the inhibition at 0.01 µM is 95.5%, the inhibition at 0.1 µM stood at 99.1% and the pIC50 is 9.11. For the same compound, the half-life at 1 µM in data set [3] came out at 92.7 min.
Take `NC(=O)c1cc(NC(=O)c2cc3ccccc3nc2N2CCCC(F)(F)CC2)ccn1` [Example 08, N-(2-carbamoylpyridin-4-yl)-2-(4,4-difluoroazepan-1-yl)quinoline-3-carboxamide]: the pIC50 in data set [1] was 8.76. In addition, in data set [2], the inhibition at 0.01 µM amounted to 75.4%, the inhibition at 0.1 µM was determined as 96.6% and the pIC50 is 8.48. Further, in data set [3], the half-life at 1 µM was 23 min.
